Calls of active or inactive are those of the source. The calls are words filed in the database; no cut-off is given here.
Columns and labels:
[1] = Binding affinity to Erythrina crista-galli agglutinin by isothermal titration calorimetry analysis
Erythrina crista-galli [2] = assay: Inhibition of Erythrina crista-galli agglutinin-mediated hemagglutination assessed as concentration of LacNAc unit after 40 mins in presence of rabbit erythrocytes; assay type: cell-based
Erythrina crista-galli [3] = assay: Inhibition of Erythrina crista-galli agglutinin-mediated hemagglutination assessed as concentration of LacNAc unit after 40 mins in presence of rabbit erythrocytes relative to LacNAc; assay type: cell-based
Erythrina crista-galli [4] = assay: Binding affinity to Erythrina crista-galli agglutinin at 0.625 to 480 uM by quantitative precipitation assay
Erythrina crista-galli [5] = assay: Inhibition of Erythrina crista-galli agglutinin-mediated hemagglutination after 40 mins in presence of rabbit erythrocytes; assay type: cell-based
Erythrina crista-galli [6] = assay: Binding affinity to Erythrina crista-galli agglutinin by isothermal titration calorimetry analysis relative to 3-TFAP-beta-LacNAc
Erythrina crista-galli [7] = assay: Binding affinity to Erythrina crista-galli agglutinin assessed as particle size by measuring DLS volume hydrodynamic diameter centered positions at 10 uM by dynamic light scattering analysis (reference value: 8.2 nanometer)
Erythrina crista-galli [8] = assay: Binding affinity to Erythrina crista-galli agglutinin assessed as particle size by measuring DLS volume hydrodynamic diameter centered positions at 20 uM by dynamic light scattering analysis (reference value: 8.2 nanometer)
Erythrina crista-galli [9] = assay: Binding affinity to Erythrina crista-galli agglutinin assessed as formation of large aggregate at 5 to 10 uM by dynamic light scattering analysis
Erythrina crista-galli [10] = assay: Binding affinity to Erythrina crista-galli agglutinin assessed as particle size by measuring DLS volume hydrodynamic diameter centered positions at 240 uM by dynamic light scattering analysis (reference value: 8.2 nanometer)
Erythrina crista-galli [11] = assay: Binding affinity to Erythrina crista-galli agglutinin assessed as particle size by measuring DLS volume hydrodynamic diameter centered positions at 5 uM by dynamic light scattering analysis (reference value: 8.2 nanometer)
Erythrina crista-galli [12] = assay: Binding affinity to Erythrina crista-galli agglutinin at 0.625 to 480 uM by dynamic light scattering analysis
Erythrina crista-galli [13] = assay: Binding affinity to Erythrina crista-galli agglutinin assessed as particle size by measuring DLS volume hydrodynamic diameter centered positions at 2.5 uM by dynamic light scattering analysis (reference value: 8.2 nanometer)

Kd [1] [µM] | MIC (Erythrina crista-galli [2]) [µM] | Activity (Erythrina crista-galli [4]) | MIC (Erythrina crista-galli [5]) [µM] | Ratio (Erythrina crista-galli [6]) | Activity (Erythrina crista-galli [7]) [nm] | Activity (Erythrina crista-galli [8]) [nm] | Activity (Erythrina crista-galli [9]) | Activity (Erythrina crista-galli [10]) [nm] | Activity (Erythrina crista-galli [11]) [nm] | Activity (Erythrina crista-galli [12]) | Activity (Erythrina crista-galli [13]) [nm] | Structure (SMILES) | Ratio (Erythrina crista-galli [3])
7.2 | 12 | Active | 3 | 4.9 | – | – | – | – | – | – | – | CC(=O)N[C@H]1[C@H](OCCOCCNC(=O)CN(CCOCCOCCN(CC(=O)NCCOCCO[C@@H]2O[C@H](CO)[C@@H](O[C@@H]3O[C@H](CO)[C@@H](O)[C@H](O)[C@H]3O)[C@H](O)[C@H]2NC(C)=O)CC(=O)NCCOCCO[C@@H]2O[C@H](CO)[C@@H](O[C@@H]3O[C@H](CO)[C@@H](O)[C@H](O)[C@H]3O)[C@H](O)[C@H]2NC(C)=O)CC(=O)NCCOCCO[C@@H]2O[C@H](CO)[C@@H](O[C@@H]3O[C@H](CO)[C@@H](O)[C@H](O)[C@H]3O)[C@H](O)[C@H]2NC(C)=O)O[C@H](CO)[C@@H](O[C@@H]2O[C@H](CO)[C@@H](O)[C@H](O)[C@H]2O)[C@@H]1O | 2
6 | 6 | Active | 1.5 | 5.9 | – | – | – | – | – | – | – | CC(=O)N[C@H]1[C@H](OCCOCCNC(=O)CCCCCNC(=O)CN(CCOCCOCCN(CC(=O)NCCCCCC(=O)NCCOCCO[C@@H]2O[C@H](CO)[C@@H](O[C@@H]3O[C@H](CO)[C@@H](O)[C@H](O)[C@H]3O)[C@H](O)[C@H]2NC(C)=O)CC(=O)NCCCCCC(=O)NCCOCCO[C@@H]2O[C@H](CO)[C@@H](O[C@@H]3O[C@H](CO)[C@@H](O)[C@H](O)[C@H]3O)[C@H](O)[C@H]2NC(C)=O)CC(=O)NCCCCCC(=O)NCCOCCO[C@@H]2O[C@H](CO)[C@@H](O[C@@H]3O[C@H](CO)[C@@H](O)[C@H](O)[C@H]3O)[C@H](O)[C@H]2NC(C)=O)O[C@H](CO)[C@@H](O[C@@H]2O[C@H](CO)[C@@H](O)[C@H](O)[C@H]2O)[C@@H]1O | 4
17.5 | 3 | 20% | 1.5 | 2 | – | – | – | – | – | – | – | CC(=O)N[C@H]1[C@H](OCCCCCNC(=O)CCCSSCCCC(=O)NCCCCCO[C@@H]2O[C@H](CO)[C@@H](O[C@@H]3O[C@H](CO)[C@@H](O)[C@H](O)[C@H]3O)[C@H](O)[C@H]2NC(C)=O)O[C@H](CO)[C@@H](O[C@@H]2O[C@H](CO)[C@@H](O)[C@H](O)[C@H]2O)[C@@H]1O | 8
35.2 | – | inactive | – | – | – | – | – | – | – | – | – | CC(=O)N[C@H]1[C@H](OCCCNC(=O)C(F)(F)F)O[C@H](CO)[C@@H](O[C@@H]2O[C@H](CO)[C@@H](O)[C@H](O)[C@H]2O)[C@@H]1O | –
2.5 | 0.76 | 95% | 0.19 | 14.1 | 1510 | 2030 | Active | 788 | 1110 | Active | – | CC(=O)N[C@H]1[C@H](OCCCNC(=O)C[C@H](NC(=O)CCCCCCCCCCCCCCCCC(=O)N[C@@H](CC(=O)NCCCO[C@@H]2O[C@H](CO)[C@@H](O[C@@H]3O[C@H](CO)[C@@H](O)[C@H](O)[C@H]3O)[C@H](O)[C@H]2NC(C)=O)C(=O)NCCCO[C@@H]2O[C@H](CO)[C@@H](O[C@@H]3O[C@H](CO)[C@@H](O)[C@H](O)[C@H]3O)[C@H](O)[C@H]2NC(C)=O)C(=O)NCCCO[C@@H]2O[C@H](CO)[C@@H](O[C@@H]3O[C@H](CO)[C@@H](O)[C@H](O)[C@H]3O)[C@H](O)[C@H]2NC(C)=O)O[C@H](CO)[C@@H](O[C@@H]2O[C@H](CO)[C@@H](O)[C@H](O)[C@H]2O)[C@@H]1O | 32
– | 24 | – | 24 | – | – | – | – | – | – | – | – | CC(=O)N[C@H]1C(O)O[C@H](CO)[C@@H](O[C@@H]2O[C@H](CO)[C@@H](O)[C@H](O)[C@H]2O)[C@@H]1O (some centres not stated) | –
15.6 | 3 | 41% | 1.5 | 2.3 | – | – | – | – | – | – | – | CC(=O)N[C@H]1[C@H](OCCCCCNC(=O)CCCCCNC(=O)CCCSSCCCC(=O)NCCCCCC(=O)NCCCCCO[C@@H]2O[C@H](CO)[C@@H](O[C@@H]3O[C@H](CO)[C@@H](O)[C@H](O)[C@H]3O)[C@H](O)[C@H]2NC(C)=O)O[C@H](CO)[C@@H](O[C@@H]2O[C@H](CO)[C@@H](O)[C@H](O)[C@H]2O)[C@@H]1O | 8
2.3 | 0.56 | 95% | 0.14 | 15.3 | – | 2280 | – | – | 1750 | Active | 1880 | CC(=O)N[C@H]1[C@H](OCCCNC(=O)C[C@H](NC(=O)CCCCCNC(=O)CCCCCCCCCCC(=O)NCCCCCC(=O)N[C@@H](CC(=O)NCCCO[C@@H]2O[C@H](CO)[C@@H](O[C@@H]3O[C@H](CO)[C@@H](O)[C@H](O)[C@H]3O)[C@H](O)[C@H]2NC(C)=O)C(=O)NCCCO[C@@H]2O[C@H](CO)[C@@H](O[C@@H]3O[C@H](CO)[C@@H](O)[C@H](O)[C@H]3O)[C@H](O)[C@H]2NC(C)=O)C(=O)NCCCO[C@@H]2O[C@H](CO)[C@@H](O[C@@H]3O[C@H](CO)[C@@H](O)[C@H](O)[C@H]3O)[C@H](O)[C@H]2NC(C)=O)O[C@H](CO)[C@@H](O[C@@H]2O[C@H](CO)[C@@H](O)[C@H](O)[C@H]2O)[C@@H]1O | 43
7.2 | 6 | 95% | 1.5 | 4.9 | – | – | – | – | – | – | – | CC(=O)N[C@H]1[C@H](OCCCNC(=O)C[C@H](NC(=O)CCCCC(=O)N[C@@H](CC(=O)NCCCO[C@@H]2O[C@H](CO)[C@@H](O[C@@H]3O[C@H](CO)[C@@H](O)[C@H](O)[C@H]3O)[C@H](O)[C@H]2NC(C)=O)C(=O)NCCCO[C@@H]2O[C@H](CO)[C@@H](O[C@@H]3O[C@H](CO)[C@@H](O)[C@H](O)[C@H]3O)[C@H](O)[C@H]2NC(C)=O)C(=O)NCCCO[C@@H]2O[C@H](CO)[C@@H](O[C@@H]3O[C@H](CO)[C@@H](O)[C@H](O)[C@H]3O)[C@H](O)[C@H]2NC(C)=O)O[C@H](CO)[C@@H](O[C@@H]2O[C@H](CO)[C@@H](O)[C@H](O)[C@H]2O)[C@@H]1O | 4
3.9 | 3 | 95% | 0.75 | 9 | – | – | – | – | – | – | – | CC(=O)N[C@H]1[C@H](OCCCNC(=O)C[C@H](NC(=O)CCCCCCCCC(=O)N[C@@H](CC(=O)NCCCO[C@@H]2O[C@H](CO)[C@@H](O[C@@H]3O[C@H](CO)[C@@H](O)[C@H](O)[C@H]3O)[C@H](O)[C@H]2NC(C)=O)C(=O)NCCCO[C@@H]2O[C@H](CO)[C@@H](O[C@@H]3O[C@H](CO)[C@@H](O)[C@H](O)[C@H]3O)[C@H](O)[C@H]2NC(C)=O)C(=O)NCCCO[C@@H]2O[C@H](CO)[C@@H](O[C@@H]3O[C@H](CO)[C@@H](O)[C@H](O)[C@H]3O)[C@H](O)[C@H]2NC(C)=O)O[C@H](CO)[C@@H](O[C@@H]2O[C@H](CO)[C@@H](O)[C@H](O)[C@H]2O)[C@@H]1O | 8

Reference: ChEMBL document CHEMBL3751837, “Synthesis of tetravalent LacNAc-glycoclusters as high-affinity cross-linker against Erythrina cristagalli agglutinin” (Bioorg Med Chem, 2016)
